Laboratory results published in ChEMBL document CHEMBL5625257, “Design, synthesis, and evaluation of dual EGFR/AURKB inhibitors as anticancer agents for non-small cell lung cancer” (Bioorg Med Chem Lett, 2024).

What was measured:
[1] = biological target: Epidermal growth factor receptor (Homo sapiens, UniProt P00533)
Description: Binding affinity to wild type human EGFR partial length (R669 to V1011 residues) expressed in bacterial expression system assessed as dissociation constant by DiscoverX kinomescan assay

[2] = biological target: T1, Epidermal growth factor receptor (Homo sapiens, UniProt P00533, L858R)
Description: Binding affinity to human partial length EGFR (R669 to V1011 residues) L858R mutant expressed in bacterial expression system assessed as dissociation constant by DiscoverX kinomescan assay

[3] = biological target: T1, Epidermal growth factor receptor; remark: listed apart in the source
Description: Inhibition of EGFR L858R mutant phosphorylation (unknown origin) preincubated for 60 mins in the presence of ATP

A549 = experiment: Anticancer activity against human A549 cells harboring KRAS mutant assessed as inhibition of cell growth
[4] = biological target: T1, Epidermal growth factor receptor; remark: listed apart in the source
Description: Inhibition of EGFR L858R mutant phosphorylation (unknown origin) in the presence of ATP

[5] = biological target: T2, Aurora kinase B/Inner centromere protein (Homo sapiens, UniProt Q96GD4)
Description: Inhibition of AURKB/INCENP (unknown origin) preincubated for 60 mins in the presence of ATP at Km concentration

[6] = biological target: T2, Aurora kinase B/Inner centromere protein; remark: listed apart in the source
Description: Inhibition of AURKB/INCENP (unknown origin) in the presence of ATP at Km concentration

Aurora kinase B [7] = biological target: T3, Aurora kinase B (Homo sapiens, UniProt Q96GD4); experiment: Inhibition of AURKB (unknown origin) by nanoBRET assay
Aurora kinase B [8] = biological target: T3, Aurora kinase B
Description: Binding affinity to human partial length AURKB (D25 to A303 residues) expressed in mammalian system assessed as dissociation constant by DiscoverX kinomescan assay

NCI-H1975 = experiment: cells; details: Homo sapiens
Description: Anticancer activity against TKI resistant human NCI-H1975 cells harboring EGFR L858R/T790M mutant assessed as inhibition of cell growth

T1 sequence (P00533 25-1210 L858R limits assumed): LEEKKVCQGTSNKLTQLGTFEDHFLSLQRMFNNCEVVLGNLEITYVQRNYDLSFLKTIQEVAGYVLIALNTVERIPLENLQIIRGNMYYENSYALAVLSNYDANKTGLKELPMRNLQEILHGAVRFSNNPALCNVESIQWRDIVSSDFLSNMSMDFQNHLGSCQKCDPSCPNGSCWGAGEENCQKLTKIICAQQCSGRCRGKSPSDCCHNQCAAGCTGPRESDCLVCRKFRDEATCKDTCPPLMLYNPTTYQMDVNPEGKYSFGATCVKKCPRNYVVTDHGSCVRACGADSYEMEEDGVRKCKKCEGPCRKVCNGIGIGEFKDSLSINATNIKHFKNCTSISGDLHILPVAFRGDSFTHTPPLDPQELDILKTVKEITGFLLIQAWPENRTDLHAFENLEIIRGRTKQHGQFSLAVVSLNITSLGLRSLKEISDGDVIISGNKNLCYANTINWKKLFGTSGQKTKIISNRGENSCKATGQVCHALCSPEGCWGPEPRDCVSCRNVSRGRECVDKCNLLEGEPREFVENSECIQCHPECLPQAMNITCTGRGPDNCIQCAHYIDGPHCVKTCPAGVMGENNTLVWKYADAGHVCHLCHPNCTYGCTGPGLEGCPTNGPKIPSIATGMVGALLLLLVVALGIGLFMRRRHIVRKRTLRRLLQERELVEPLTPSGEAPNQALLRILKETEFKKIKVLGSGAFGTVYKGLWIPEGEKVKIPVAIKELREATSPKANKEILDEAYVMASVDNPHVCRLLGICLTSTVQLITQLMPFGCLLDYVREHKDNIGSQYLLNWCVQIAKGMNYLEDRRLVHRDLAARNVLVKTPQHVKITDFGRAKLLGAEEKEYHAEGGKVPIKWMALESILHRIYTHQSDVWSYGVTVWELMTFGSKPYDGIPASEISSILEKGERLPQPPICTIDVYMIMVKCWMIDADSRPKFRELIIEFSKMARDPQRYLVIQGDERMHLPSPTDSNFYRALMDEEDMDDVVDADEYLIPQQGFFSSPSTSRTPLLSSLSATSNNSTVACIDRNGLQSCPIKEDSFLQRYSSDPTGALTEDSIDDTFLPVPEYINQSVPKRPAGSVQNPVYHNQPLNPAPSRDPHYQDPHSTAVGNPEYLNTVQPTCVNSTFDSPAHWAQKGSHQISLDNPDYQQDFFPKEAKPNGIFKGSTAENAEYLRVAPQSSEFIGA
T2 sequence (Q96GD4 whole entry): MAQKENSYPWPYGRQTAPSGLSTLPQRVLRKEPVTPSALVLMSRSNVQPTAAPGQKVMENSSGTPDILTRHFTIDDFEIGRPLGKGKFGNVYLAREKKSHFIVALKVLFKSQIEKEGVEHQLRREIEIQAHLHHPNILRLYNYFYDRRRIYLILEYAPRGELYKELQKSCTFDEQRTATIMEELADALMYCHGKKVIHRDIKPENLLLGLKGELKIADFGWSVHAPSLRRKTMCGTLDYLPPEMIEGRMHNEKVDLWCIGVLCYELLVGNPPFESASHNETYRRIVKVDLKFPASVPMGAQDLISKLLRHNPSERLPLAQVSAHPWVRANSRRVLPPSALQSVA
T2 sequence (Q9NQS7 whole entry, further chain): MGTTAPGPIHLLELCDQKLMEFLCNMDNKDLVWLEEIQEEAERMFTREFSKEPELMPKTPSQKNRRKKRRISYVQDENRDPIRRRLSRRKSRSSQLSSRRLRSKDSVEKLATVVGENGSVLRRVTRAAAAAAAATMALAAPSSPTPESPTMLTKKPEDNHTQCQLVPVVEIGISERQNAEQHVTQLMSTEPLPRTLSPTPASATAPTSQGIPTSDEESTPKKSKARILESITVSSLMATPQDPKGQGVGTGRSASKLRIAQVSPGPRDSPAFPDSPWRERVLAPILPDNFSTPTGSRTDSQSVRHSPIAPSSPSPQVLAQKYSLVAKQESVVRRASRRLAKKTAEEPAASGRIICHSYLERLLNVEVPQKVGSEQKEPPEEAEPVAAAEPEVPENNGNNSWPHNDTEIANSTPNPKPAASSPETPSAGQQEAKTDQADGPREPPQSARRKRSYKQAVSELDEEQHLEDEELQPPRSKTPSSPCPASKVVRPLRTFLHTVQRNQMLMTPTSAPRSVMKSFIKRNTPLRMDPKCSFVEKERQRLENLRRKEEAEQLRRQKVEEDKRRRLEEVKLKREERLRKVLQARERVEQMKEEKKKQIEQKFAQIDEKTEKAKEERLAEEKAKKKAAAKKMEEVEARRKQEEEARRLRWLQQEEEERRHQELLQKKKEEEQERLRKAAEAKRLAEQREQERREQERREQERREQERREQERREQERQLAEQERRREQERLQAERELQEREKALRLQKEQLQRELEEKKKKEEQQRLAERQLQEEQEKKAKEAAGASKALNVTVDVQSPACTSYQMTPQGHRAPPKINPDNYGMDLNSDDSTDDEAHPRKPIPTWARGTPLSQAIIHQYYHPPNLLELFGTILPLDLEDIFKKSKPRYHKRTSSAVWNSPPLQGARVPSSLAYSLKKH
T3 sequence (Q96GD4 whole entry): as the sequence (Q96GD4 whole entry) above
Sequence of Epidermal growth factor receptor (Homo sapiens, UniProt P00533) (P00533 whole entry): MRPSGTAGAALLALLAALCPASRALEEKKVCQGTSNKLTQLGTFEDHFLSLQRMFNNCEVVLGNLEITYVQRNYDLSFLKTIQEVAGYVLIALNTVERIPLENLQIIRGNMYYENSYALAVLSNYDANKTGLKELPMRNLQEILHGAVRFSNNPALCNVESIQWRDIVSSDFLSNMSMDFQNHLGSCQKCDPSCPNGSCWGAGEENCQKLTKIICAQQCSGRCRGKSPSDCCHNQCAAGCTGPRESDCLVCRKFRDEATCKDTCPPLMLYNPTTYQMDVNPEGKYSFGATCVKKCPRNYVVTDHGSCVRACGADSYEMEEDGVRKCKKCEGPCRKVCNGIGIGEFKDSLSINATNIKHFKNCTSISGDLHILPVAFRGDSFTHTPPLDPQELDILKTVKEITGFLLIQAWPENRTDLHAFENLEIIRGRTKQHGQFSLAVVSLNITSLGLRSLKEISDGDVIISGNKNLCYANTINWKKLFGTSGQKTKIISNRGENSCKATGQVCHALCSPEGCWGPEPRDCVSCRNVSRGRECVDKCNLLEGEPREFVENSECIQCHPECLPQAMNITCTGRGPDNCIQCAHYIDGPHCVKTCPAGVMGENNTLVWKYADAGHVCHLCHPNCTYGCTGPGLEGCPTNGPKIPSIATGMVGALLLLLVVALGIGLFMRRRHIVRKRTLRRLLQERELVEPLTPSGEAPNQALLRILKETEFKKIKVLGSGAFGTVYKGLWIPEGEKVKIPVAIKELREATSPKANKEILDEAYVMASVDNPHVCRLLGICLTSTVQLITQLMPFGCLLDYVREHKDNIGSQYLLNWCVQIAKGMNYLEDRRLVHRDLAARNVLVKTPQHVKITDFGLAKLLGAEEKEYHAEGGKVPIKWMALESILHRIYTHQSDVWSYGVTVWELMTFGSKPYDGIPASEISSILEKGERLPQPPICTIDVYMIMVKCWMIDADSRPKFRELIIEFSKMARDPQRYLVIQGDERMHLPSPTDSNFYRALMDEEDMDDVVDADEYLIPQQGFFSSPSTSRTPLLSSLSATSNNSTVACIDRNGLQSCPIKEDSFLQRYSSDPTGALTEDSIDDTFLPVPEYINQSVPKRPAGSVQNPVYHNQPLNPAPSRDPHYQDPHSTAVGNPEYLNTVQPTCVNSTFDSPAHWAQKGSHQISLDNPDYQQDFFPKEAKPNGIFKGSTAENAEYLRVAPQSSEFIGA

Row | Compound | Kd [1] | Kd [2] | IC50 [3] | IC50 (A549) | IC50 [4] | IC50 [5] | IC50 [6] | IC50 (Aurora kinase B [7]) | Kd (Aurora kinase B [8]) | IC50 (NCI-H1975)
1 | COc1cc2c(Nc3ccc(NC(=O)c4ccccc4)cc3)ncnc2cc1OCCCN1CCOCC1 | 220 nM | 880 nM | – | – | – | – | – | – | – | –
2 | Brc1cccc(Nc2ncnc3[nH]ccc23)c1 | – | – | 3 nM | 20400 nM | 3 nM | 3800 nM | 2770 nM | – | – | –
3 | O=C(Nc1ccccc1)c1ccc(Nc2ncnc3[nH]ccc23)cc1 | – | – | – | – | – | 50 nM | 800 nM | 14700 nM | – | –
4 | Cn1nccc1-c1cc2c(Nc3ccc(OCc4ccccc4)cc3)ncnc2[nH]1 | – | 210 nM | 69 nM | 2920 nM | 70 nM | 1100 nM | 4000 nM | – | > 30000 nM | > 50000 nM
5 | COc1cccc2c1C(=O)c1c(O)c3c(c(O)c1C2=O)C[C@@](O)(C(=O)CO)C[C@@H]3O[C@H]1C[C@H](N)[C@H](O)[C@H](C)O1 [DOXORUBICIN] | – | – | – | 59 nM | – | – | – | – | – | –
